Test results as given in patent publication US12540129B2, “KIF18A inhibitors” (AMGEN INC., priority 2019, dated 2026).

Molecular target: T1, Recombinant human KIF18A (1-467 His-tagged) protein (Homo sapiens, UniProt Q8NI77)
T1 construct: Recombinant human KIF18A (1-467 His-tagged) protein; His; made in house
Experiment: KIF18A Enzyme Assay: microtubule-stimulated ATPase activity (ADP-Glo)
Type: biochemical
Conditions: 30 nM KIF18A, 75 μM ATP
Text: KIF18A Enzyme Assay: Microtubule-stimulated ATPase activity assay is used to measure KIF18A enzyme activity after treatment with compound. Compounds were 2-fold serially diluted in DMSO (Sigma Inc) over 22-point concentration range. Recombinant human KIF18A (1-467 His-tagged) protein was expressed using a baculovirus system and purified by affinity chromatography by Amgen Inc. Concentrations of KIF18A protein, microtubules (MT), and ATP in the reaction were optimized for standardized homogenous enzyme assay using ADP-Glorm Kinase/ATPase Assay Kit (Promega Inc). The assay measures ADP formed from the ATPase reaction. […] Read luminescence using EnVision microplate reader with ultra-luminescence module (Perkin Elmer Inc). Concentration-response curve-fitting and IC50 determination was performed using Genedata Screener Software (Standard 15.0.1, Genedata Inc) with a four-parameter logistic regression fit model.
Table A provides data for compounds exemplified in the present application and priority document thereof, as representative compounds of the present invention, as follows: chemical name (as named by either ACD software or ChemDraw (Professional 15.0)) and biological data (IC50 in μM). Ex. # refers to Example No.

T1 sequence (Q8NI77 1-467): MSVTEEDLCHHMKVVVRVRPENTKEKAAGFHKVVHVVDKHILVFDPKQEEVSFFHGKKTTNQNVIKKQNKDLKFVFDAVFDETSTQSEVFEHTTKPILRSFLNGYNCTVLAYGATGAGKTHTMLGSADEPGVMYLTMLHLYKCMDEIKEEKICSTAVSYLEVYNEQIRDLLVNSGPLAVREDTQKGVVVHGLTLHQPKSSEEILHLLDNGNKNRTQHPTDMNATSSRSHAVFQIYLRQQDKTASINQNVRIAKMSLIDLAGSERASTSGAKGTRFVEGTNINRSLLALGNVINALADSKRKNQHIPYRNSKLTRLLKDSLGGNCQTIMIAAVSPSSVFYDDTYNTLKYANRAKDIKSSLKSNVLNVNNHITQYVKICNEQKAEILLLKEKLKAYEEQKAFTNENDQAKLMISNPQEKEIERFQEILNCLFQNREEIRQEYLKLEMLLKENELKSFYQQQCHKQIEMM
T1 sequence (P02550 whole entry partner): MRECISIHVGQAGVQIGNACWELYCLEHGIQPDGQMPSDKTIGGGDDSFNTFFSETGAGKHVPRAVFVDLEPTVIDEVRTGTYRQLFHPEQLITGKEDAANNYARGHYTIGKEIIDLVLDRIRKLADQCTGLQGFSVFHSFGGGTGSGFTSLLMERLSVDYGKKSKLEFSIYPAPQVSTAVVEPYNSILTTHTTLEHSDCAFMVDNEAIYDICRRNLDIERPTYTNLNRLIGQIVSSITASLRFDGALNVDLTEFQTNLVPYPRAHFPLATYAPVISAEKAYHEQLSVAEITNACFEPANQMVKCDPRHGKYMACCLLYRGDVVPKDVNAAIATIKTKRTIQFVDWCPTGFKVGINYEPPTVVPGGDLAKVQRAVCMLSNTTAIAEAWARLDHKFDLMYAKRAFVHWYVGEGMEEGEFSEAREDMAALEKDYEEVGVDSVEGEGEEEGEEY
T1 sequence (P02554 whole entry partner): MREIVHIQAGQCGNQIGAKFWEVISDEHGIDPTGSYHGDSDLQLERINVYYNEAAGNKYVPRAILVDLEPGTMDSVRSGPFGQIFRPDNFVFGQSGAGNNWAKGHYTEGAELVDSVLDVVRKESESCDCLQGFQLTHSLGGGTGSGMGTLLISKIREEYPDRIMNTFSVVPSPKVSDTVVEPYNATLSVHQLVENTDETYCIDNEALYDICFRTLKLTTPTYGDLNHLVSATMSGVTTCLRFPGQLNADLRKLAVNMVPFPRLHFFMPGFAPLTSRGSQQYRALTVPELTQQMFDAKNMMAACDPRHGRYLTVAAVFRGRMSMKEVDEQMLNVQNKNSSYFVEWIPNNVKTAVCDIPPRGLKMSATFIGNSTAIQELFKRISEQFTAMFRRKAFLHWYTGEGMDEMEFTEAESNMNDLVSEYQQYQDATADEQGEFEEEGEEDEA

IC50 [nM] | Compound
182 | CC(C)(C)NS(=O)(=O)c1cccc(NC(=O)c2ccc(N3CC(S(C)(=O)=O)C3)nc2N2CCC3(CC2)CC3)c1 [Example 102-15, N-(3-(N-(tert-butyl)sulfamoyl)phenyl)-6-(3-(methylsulfonyl)azetidin-1-yl)-2-(6-azaspiro[2.5]octan-6-yl)nicotinamide]
221 | CC(C)(C)NS(=O)(=O)c1cccc(NC(=O)c2ccc(NC3CCC3)nc2N2CCC3(CC2)CC3)c1 [Example 102-16, N-(3-(N-(tert-butyl)sulfamoyl)phenyl)-6-(cyclobutylamino)-2-(6-azaspiro[2.5]octan-6-yl)nicotinamide]
294 | CC(C)(C)NS(=O)(=O)c1cccc(NC(=O)c2ccc(NC3CC(F)(F)C3)nc2N2CCC3(CC2)CC3)c1 [Example 102-17, N-(3-(N-(tert-butyl)sulfamoyl)phenyl)-6-((3,3-difluorocyclobutyl)amino)-2-(6-azaspiro[2.5]octan-6-yl)nicotinamide]
107 | CC(C)(C)NS(=O)(=O)c1cccc(NC(=O)c2ccc(N[C@@H]3CCC[C@H]3O)nc2N2CCC3(CC2)CC3)c1 [Example 102-18, N-(3-(N-(tert-butyl)sulfamoyl)phenyl)-6-(((1R,2R)-2-hydroxycyclopentyl)amino)-2-(6-azaspiro[2.5]octan-6-yl)nicotinamide]
160 | CC(C)(C)NS(=O)(=O)c1cccc(NC(=O)c2ccc(N[C@H]3CCC[C@H]3O)nc2N2CCC3(CC2)CC3)c1 [Example 102-19, N-(3-(N-(tert-butyl)sulfamoyl)phenyl)-6-(((1S,2R)-2-hydroxycyclopentyl)amino)-2-(6-azaspiro[2.5]octan-6-yl)nicotinamide]
103 | CC(C)(C)NS(=O)(=O)c1cccc(NC(=O)c2ccc(N[C@H]3COC[C@@H]3O)nc2N2CCC3(CC2)CC3)c1 [Example 102-20, N-(3-(N-(tert-butyl)sulfamoyl)phenyl)-6-(((3S,4R)-4-hydroxytetrahydrofuran-3-yl)amino)-2-(6-azaspiro[2.5]octan-6-yl)nicotinamide]
134 | CC(C)(C)NS(=O)(=O)c1cccc(NC(=O)c2ccc(N[C@@H]3CCOC3)nc2N2CCC3(CC2)CC3)c1 [Example 102-21, (R)-N-(3-(N-(tert-butyl)sulfamoyl)phenyl)-2-(6-azaspiro[2.5]octan-6-yl)-6-((tetrahydrofuran-3-yl)amino)nicotinamide]
116 | CC(C)(C)NS(=O)(=O)c1cccc(NC(=O)c2ccc(N[C@@H]3CC[C@H](O)C3)nc2N2CCC3(CC2)CC3)c1 [Example 102-22, N-(3-(N-(tert-butyl)sulfamoyl)phenyl)-6-(((1R,3S)-3-hydroxycyclopentyl)amino)-2-(6-azaspiro[2.5]octan-6-yl)nicotinamide]
185 | CC(C)(C)NS(=O)(=O)c1cccc(NC(=O)c2ccc(N[C@H]3CC[C@H](O)C3)nc2N2CCC3(CC2)CC3)c1 [Example 102-23, N-(3-(N-(tert-butyl)sulfamoyl)phenyl)-6-(((1S,3S)-3-hydroxycyclopentyl)amino)-2-(6-azaspiro[2.5]octan-6-yl)nicotinamide]
259 | CC(C)(C)NS(=O)(=O)c1cccc(NC(=O)c2ccc(N[C@@H]3CCOC[C@H]3O)nc2N2CCC3(CC2)CC3)c1 [Example 102-24, N-(3-(N-(tert-butyl)sulfamoyl)phenyl)-6-(((3S,4R)-3-hydroxytetrahydro-2H-pyran-4-yl)amino)-2-(6-azaspiro[2.5]octan-6-yl)nicotinamide]
84 | CC(C)(C)NS(=O)(=O)c1cccc(NC(=O)c2ccc(NC3COC3)nc2N2CCC3(CC2)CC3)c1 [Example 102-25, N-(3-(N-(tert-butyl)sulfamoyl)phenyl)-6-(oxctan-3-ylamino)-2-(6-azaspiro[2.5]octan-6-yl)nicotinamide]
56 | CC(C)(C)NS(=O)(=O)c1cccc(NC(=O)c2ccc(NC3(C)COC3)nc2N2CCC3(CC2)CC3)c1 [Example 102-26, N-(3-(N-(tert-butyl)sulfamoyl)phenyl)-6-((3-methyloxetan-3-yl)amino)-2-(6-azaspiro[2.5]octan-6-yl)nicotinamide]
80 | CC(C)(C)NS(=O)(=O)c1cccc(NC(=O)c2ccc(NC3(CO)COC3)nc2N2CCC3(CC2)CC3)c1 [Example 102-27, N-(3-(N-(tert-butyl)sulfamoyl)phenyl)-6-((3-(hydroxymethyl)oxetan-3-yl)amino)-2-(6-azaspiro[2.5]octan-6-yl)nicotinamide]
71 | CC(C)(C)NS(=O)(=O)c1cccc(NC(=O)c2ccc(NC3(CO)CCC3)nc2N2CCC3(CC2)CC3)c1 [Example 102-28, N-(3-(N-(tert-butyl)sulfamoyl)phenyl)-6-((1-(hydroxymethyl)cyclobutyl)amino)-2-(6-azaspiro[2.5]octan-6-yl)nicotinamide]
98 | CC(C)(C)NS(=O)(=O)c1cccc(NC(=O)c2ccc(N[C@H]3C[C@@H](O)C3)nc2N2CCC3(CC2)CC3)c1 [Example 102-29, N-(3-(N-(tert-butyl)sulfamoyl)phenyl)-6-(((1S,3S)-3-hydroxycyclobutyl)amino)-2-(6-azaspiro[2.5]octan-6-yl)nicotinamide]
81 | CC(C)(C)NS(=O)(=O)c1cccc(NC(=O)c2ccc(NCCCO)nc2N2CCC3(CC2)CC3)c1 [Example 102-30, N-(3-(N-(tert-butyl)sulfamoyl)phenyl)-6-((3-hydroxypropyl)amino)-2-(6-azaspiro[2.5]octan-6-yl)nicotinamide]
317 | CC(C)(C)NS(=O)(=O)c1cccc(NC(=O)c2ccc(NCc3ccccc3)nc2N2CCC3(CC2)CC3)c1 [Example 102-31, 6-(benzylamino)-N-(3-(N-(tert-butyl)sulfamoyl)phenyl)-2-(6-azaspiro[2.5]octan-6-yl)nicotinamide]
58 | CC(C)(O)CNc1ccc(C(=O)Nc2cccc(S(=O)(=O)C3CCCC3)c2)c(N2CCC3(CC2)CC3)n1 [Example 103, N-(3-(Cyclopentylsulfonyl)phenyl)-6-((2-hydroxy-2-methylpropyl)amino)-2-(6-azaspiro[2.5]octan-6-yl)nicotinamide]
60 | COCCNc1ccc(C(=O)Nc2cccc(S(=O)(=O)C3CCCC3)c2)c(N2CCC3(CC2)CC3)n1 [Example 103-1, N-(3-(cyclopentylsulfonyl)phenyl)-6-((2-methoxyethyl)amino)-2-(6-azaspiro[2.5]octan-6-yl)nicotinamide]
47 | O=C(Nc1cccc(S(=O)(=O)C2CCCC2)c1)c1ccc(NCCCO)nc1N1CCC2(CC1)CC2 [Example 103-2, N-(3-(cyclopentylsulfonyl)phenyl)-6-((3-hydroxypropyl)amino)-2-(6-azaspiro[2.5]octan-6-yl)nicotinamide]
90 | CC(C)(C)Nc1ccc(C(=O)Nc2cccc(S(=O)(=O)C3CCCC3)c2)c(N2CCC3(CC2)CC3)n1 [Example 103-3, 6-(tert-butylamino)-N-(3-(cyclopentylsulfonyl)phenyl)-2-(6-azaspiro[2.5]octan-6-yl)nicotinamide]
39 | O=C(Nc1cccc(S(=O)(=O)C2CCCC2)c1)c1ccc(NC2(CO)CC2)nc1N1CCC2(CC1)CC2 [Example 103-4, N-(3-(cyclopentylsulfonyl)phenyl)-6-((1-(hydroxymethyl)cyclopropyl)amino)-2-(6-azaspiro[2.5]octan-6-yl)nicotinamide]
54 | O=C(Nc1cccc(S(=O)(=O)C2CCCC2)c1)c1ccc(NC2(CO)CCC2)nc1N1CCC2(CC1)CC2 [Example 103-5, N-(3-(cyclopentylsulfonyl)phenyl)-6-((1-(hydroxymethyl)cyclobutyl)amino)-2-(6-azaspiro[2.5]octan-6-yl)nicotinamide]
39 | O=C(Nc1cccc(S(=O)(=O)C2CCCC2)c1)c1ccc(NC2(CO)COC2)nc1N1CCC2(CC1)CC2 [Example 103-6, N-(3-(cyclopentylsulfonyl)phenyl)-6-((3-(hydroxymethyl)oxetan-3-yl)amino)-2-(6-azaspiro[2.5]octan-6-yl)nicotinamide]
47 | CC(C)(CCO)Nc1ccc(C(=O)Nc2cccc(S(=O)(=O)C3CCCC3)c2)c(N2CCC3(CC2)CC3)n1 [Example 103-7, N-(3-(cyclopentylsulfonyl)phenyl)-6-((4-hydroxy-2-methylbutan-2-yl)amino)-2-(6-azaspiro[2.5]octan-6-yl)nicotinamide]
42 | O=C(Nc1cccc(S(=O)(=O)C2CCCC2)c1)c1ccc(NCC2(O)CC2)nc1N1CCC2(CC1)CC2 [Example 103-8, N-(3-(cyclopentylsulfonyl)phenyl)-6-(((1-hydroxycyclopropyl)methyl)amino)-2-(6-azaspiro[2.5]octan-6-yl)nicotinamide]
42 | C[C@@H](CO)Nc1ccc(C(=O)Nc2cccc(S(=O)(=O)C3CCCC3)c2)c(N2CCC3(CC2)CC3)n1 [Example 103-9, (S)-N-(3-(cyclopentylsulfonyl)phenyl)-6-((1-hydroxypropan-2-yl)amino)-2-(6-azaspiro[2.5]octan-6-yl)nicotinamide]
42 | C[C@H](CO)Nc1ccc(C(=O)Nc2cccc(S(=O)(=O)C3CCCC3)c2)c(N2CCC3(CC2)CC3)n1 [Example 103-10, (R)-N-(3-(cyclopentylsulfonyl)phenyl)-6-((1-hydroxypropan-2-yl)amino)-2-(6-azaspiro[2.5]octan-6-yl)nicotinamide]
